The subject of one data set is Aβ peptide. Briefly: in vitro circular dichroism (CD) assay of β-sheet secondary structure formation. Particulars: Aβ peptide with test compound in Tris-HCl buffer pH 7, incubated 0 or 24 hours at 37° C., CD at 25° C. The text has this:
It is known that amyloidogenic peptides or proteins which have formed amyloid deposits or plaques have a significant amount of β-sheet secondary structure, while the unaggregated peptide or protein generally has less β-sheet structure. It is believed that the ability of a candidate therapeutic compound to prevent the formation of β-sheet secondary structure in vitro may be correlated with the ability of the compound to inhibit amyloidogenesis in vivo. Accordingly, phosphonate compounds were assayed for ability to prevent the formation of β-sheet secondary structure in an in vitro circular dichroism (CD) assay.
Aβ is a 40 amino acid protein associated with Alzheimer's disease. Aβ peptide was prepared and purified as described in Fraser, P. E. et al., Biochemistry 31, 10716 (1992). Briefly, the peptide was synthesized by standard solid-phase techniques and purified by HPLC according to well known procedures.
All CD experiments were performed on a commercially available instrument. The cell was maintained at 25° C. using a circulating water bath. Computer-averaging of traces was performed to improve signal-to-noise ratios. The solvent signal was subtracted. CD experiments were performed for each test compound according to the following procedure:
A stock solution of purified peptide was made by dissolving the peptide in phosphate-buffered saline (PBS) to a concentration of 2 mg/ml. […]

A further data set concerns amyloid peptide. The data set is described as follows: amyloid peptide solubility assay (overnight incubation, centrifugation, soluble peptide determination). The note with it: compound and amyloid peptide incubated together overnight, then centrifugation; preliminary result.
In data set [1] the test system is cortical/hippocampal neuronal cultures. Briefly: neurotoxicity in cortical/hippocampal neuronal cultures. It is filed as cell-based. Particulars: concentrations ranging from 10^-7 M to 10^-4 M.

These results are taken from patent US5869469A, “Phosphonocarboxylate compounds for treating amyloidosis” (Queen's University at Kingston, priority 1997, dated 1999).

Where a name gives a salt, the structure may show the parent alone.

As for `O=C(O)CCOCCP(=O)(O)O` [2-carboxyethoxyethylphosphonic acid], the “β-sheet formation (minimum at 218 nm in CD spectrum versus control)” value in the data set with Aβ peptide is on record as “did not appear to prevent β-pleated sheet formation”.

`O=C(O)P(=O)(O)O` [Phosphonoformate sodium salt, Trisodium phosphonoformate]: the “effect on amyloid peptide solubility (amount of soluble peptide)” value in the data set on amyloid peptide is given as “little effect on amyloid peptide solubility”. For the same molecule, in data set [1], the neurotoxicity result was “no significant toxicity”. Also, in the data set with Aβ peptide, the “β-sheet formation (minimum at 218 nm in CD spectrum versus control)” value was “significantly and reproducibly reduce the amount of β-sheet formation”.
